Results reported in patent publication US10968214B2, “KRas G12C inhibitors” (Eli Lilly and Company, priority 2018, dated 2021).
Read-outs that look alike come from different tables or passages of the source.

Assays:
[1] = target: T1, constitutive RAS GTPAse activity in H358 cells (Homo sapiens, UniProt P01116, G12C); assay: H358 Cellular Active RAS GTPase ELISA; assay type: cell-based; details: 2 hr, read-out: RAS-GTP
T1 construct: host or cells: H358 human lung cancer cells
Description: This assay is used to measure the ability of test compounds to inhibit constitutive RAS GTPAse activity in human lung cancer cells H358 (ATCC CRL-5807). The RAS GTPase ELISA kit (Active Motif Cat #52097) contains a 96-well plate pre-coated with glutathione in order to capture a kit-supplied GST-Raf-RBD protein. Activated RAS (GTP-bound) in cell extracts specifically bind to the Raf-RBD. Bound RAS is detected with a primary antibody that recognizes human KRas. A secondary antibody conjugated with HRP recognizes the primary antibody and a development solution provides a chemiluminescent readout.
H358 cells are plated at 80,000 cells/well in 90 μL serum free media (RPMI 1640, GIBCO) and incubated overnight at 37° C./5% CO2. The next morning, 10 μL of serially-diluted (3-fold) test compounds (500 μM top concentration) and 10 μL of controls (Maximum signal wells: 5% DMSO and Minimum signal wells: 500 μM LSN3429410 as an inhibitor) are added to the cell plate and incubated for 2 hr at 37° C./5% CO2. Complete Lysis/Binding Buffer is prepared containing Protease Inhibitor cocktail and GST-Raf-RBD and stored on ice. One hour before cell plate incubation is completed, 50 μL of GST-Raf-RBD is diluted in lysis/binding buffer, and buffer is added to the ELISA assay plate and which is incubated for 1 hour at 4° C. with gently rocking. After 2 hr, the cells are washed with 100 μL ice-cold PBS and lysed with 100 μL lysis/binding buffer. The cell plate is shaken for 10 min at RT. The cell plate is then centrifuged at 1500 rpm for 10 min at RT. During this time, 1× Wash Buffer is prepared at RT and then is used to wash (3×100 μL) the GST-Raf-RBD coated assay plate. After washing, 50 μL of cell lysate is added to the GST-Raf-RBD coated assay plate and incubated for 1 hour at RT with gentle shaking. During this incubation period, 1× Antibody Binding Buffer is prepared and brought to RT. The assay plate is washed 3×100 μL with 1× Wash Buffer and then 50 μL of Primary Antibody (diluted 1:500 in 1× Antibody Binding buffer) is added. The plate is incubated for 1 hour at RT. The assay plate is washed 3×100 μl with 1× Wash Buffer and then 50 μL of Secondary Antibody (diluted 1:5000 in 1× Antibody Binding buffer) is added and incubated for 1 hour at RT. The assay plate is washed 4×100 μL with 1× Wash buffer and then 50 μL of chemiluminescent working solution is added at RT. The assay plate is then read on an EnVision™ Plate Reader (Perkin Elmer) using a luminescence program.
The signal is converted to percent inhibition using the following equation: % Inhibition=100−[(Test Compound Signal−Median Minimum Signal)/(Median Maximum Signal−Median Minimum Signal)×100]. The Maximum signal is a control well without inhibitor.

[2] = target: KRas G12C (Homo sapiens, UniProt P01116, G12C); assay: KRas G12C Probe Occupancy TR-FRET Assay; assay type: binding; details: 60 min incubation of inhibitor with KRas G12C; read-out: TR-FRET 60 min
Sequence of KRas G12C (P01116 1-188 isoform P01116-2 G12C): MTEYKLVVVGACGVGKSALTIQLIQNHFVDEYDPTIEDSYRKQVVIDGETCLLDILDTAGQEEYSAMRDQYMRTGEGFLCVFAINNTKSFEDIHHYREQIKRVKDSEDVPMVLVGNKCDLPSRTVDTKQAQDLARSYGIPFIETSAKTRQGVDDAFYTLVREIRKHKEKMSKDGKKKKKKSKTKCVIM
Experimental: Inhibitors are tested in dose response format from 10 mM stocks in 100% DMSO. The Labycyte Echo® 555 is used to dilute and transfer 100 nL per well containing a 10 point, 2.8-fold serial dilution to an assay plate. […] The signal ratio (em at 665/em at 615) is converted to percent inhibition using the following equation: % Inhibition=100−[(Test Compound Signal−Median Minimum Signal)/(Median Maximum Signal−Median Minimum Signal)×100].

[3] = system: phosphorylation of p-ERK1/2 in H358 cells; assay: H358 Cellular Phospho-ERK AlphaLISA; assay type: cell-based, Human; details: read-out: pERK
Experimental: This assay is used to measure the ability of test compounds to inhibit the phosphorylation of p-ERK1/2, a downstream effector of KRas in Human lung cancer cells H358 (ATCC CRL-5807). Briefly, the AlphaLISA® SureFire® Ultra™ p-ERK 1/2 (Thr202/Tyr204) assay is a sandwich immunoassay for quantitative detection of phospho-ERK 1/2 (phosphorylated on Thr202/Tyr204 in ERK1, or Thr185/Tyr187 in ERK2) in cellular lysates using Alpha Technology (Perkin Elmer Cat #ALSU-PERK-A50K).
H358 cells are plated at 40K cells per well in 100 μL media (RPMI 1640, GIBCO Cat #22400-071) containing 10% FBS (GIBCO Cat #: 10082-147) in a 96 well plate (Costar #3596) and are incubated overnight in humid trays at 37° C., 5% CO2. The next morning, 10 μL of serially-diluted (3-fold) test compounds (50 μM top concentration) and 10 uL of controls (Maximum signal wells: 5% DMSO and Minimum signal wells: 2 μM of N-(3-{3-cyclopropyl-5-[(2-fluoro-4-iodophenyl)amino]-6,8-dimethyl-2,4,7-trioxo-3,4,6,7-tetrahydropyrido[4,3-D]pyrimidin-1(2H)-yl}phenyl)acetamide (trametinib, as a positive control) are added to the cell plate and incubated for 2 hr in humid trays at 37° C./5% CO2. Lysis Buffer is prepared at RT containing a protease and phosphatase inhibitor cocktail. Culture medium is removed by inverting and shaking the cell plate in the sink and then blotting onto a paper towel. Lysis buffer is added to the cell plate (50 μL per well) and the plate is incubated at RT for 10 min on a shaker. For p-ERK detection, acceptor beads are diluted into a suspension mixture with buffer. Using a Starlett liquid handler, 5 μL of acceptor beads and 2 μL of cell lysate are transferred as a single-step in-tip dilution to a 384 well assay plate. The assay plate is sealed with foil and is incubated at RT for 2 hrs. Donor beads are diluted into a suspension mixture with buffer. Using the Starlet, 5 μL of donor beads are added to the assay plate that is then sealed, wrapped with foil. The plate is incubated at RT for 2 hrs in the dark. The assay plate is then read on an EnVision™ Plate Reader (Perkin Elmer) using a luminescence program.
The signal is converted to percent inhibition using the following equation: % Inhibition=100−[(Test Compound Signal−Median Minimum Signal)/(Median Maximum Signal−Median Min Signal)×100]. The Maximum signal is a control well without inhibitor.

[4] = system: EL3187 (PDX); assay: Anti-tumor growth activity, EL3187 lung PDX; assay type: in vivo; details: EL3187 Lung PDX; Afatinib 25 mg/kg QDx28

T1 sequence (P01116 1-188 isoform P01116-2 G12C): as above

Compound	IC50 [1]	IC50 [2]	IC50 ([3]; Homo sapiens, NCI-H358, 2 h)	IC50 ([3]; 2 hr)	In Vivo Anti-Tumor Activities [4]
C=CC(=O)N1CCN(c2ncnc3c(F)c(-c4cccc5sc(N)nc45)c(Cl)cc23)CC1 [Example 5, 1-{4-[7-(2-Amino-1,3-benzothiazol-4-yl)-6-chloro-8-fluoroquinazolin-4-yl]piperazin-1-yl}prop-2-en-1-one]	0.104 µM	0.0278 µM	0.00973 µM	–	–
C=CC(=O)N1CCN(c2ncnc3c(F)c(-c4c(F)cc(F)c5sc(N)nc45)c(Cl)cc23)CC1 (single isomer, unassigned) [Example 6a, 1-{4-[7-(2-Amino-5,7-difluoro-1,3-benzothiazol-4-yl)-6-chloro-8-fluoroquinazolin-4-yl]piperazin-1-yl}prop-2-en-1-one]	0.0117 µM	< 0.0189 µM	–	0.00394 µM	–
CN(C)C/C=C/C(=O)Nc1cc2c(Nc3ccc(F)c(Cl)c3)ncnc2cc1O[C@H]1CCOC1 [Afatinib, afatinib, reference compound]	–	–	–	–	17.1
C=CC(=O)N1CCN(c2ncnc3c(F)c(-c4cc(F)c(F)c5sc(N)nc45)c(Cl)cc23)CC1 [Example 3, 1-{4-[7-(2-Amino-6,7-difluoro-1,3-benzothiazol-4-yl)-6-chloro-8-fluoroquinazolin-4-yl]piperazin-1-yl}prop-2-en-1-one]	0.166 µM	0.0209 µM	0.0153 µM	–	–
C=CC(=O)N1CCN(c2ncnc3cc(-c4ccc(F)c5sc(N)nc45)c(Cl)cc23)CC1 [Example 4, 1-{4-[7-(2-Amino-7-fluoro-1,3-benzothiazol-4-yl)-6-chloroquinazolin-4-yl]piperazin-1-yl}prop-2-en-1-one]	0.234 µM	0.025 µM	0.0271 µM	–	–
C=CC(=O)N1CCN(c2ncnc3cc(-c4ccc5oc(N)nc5c4)c(Cl)cc23)CC1 [reference compound]	> 50 µM	82.2 µM	> 5 µM	–	–
C=CC(=O)N1CCN(c2ncnc3c(F)c(-c4c(F)cc(F)c5sc(N)nc45)c(Cl)cc23)CC1 (single isomer, unassigned) [Example 6b, 1-{4-[7-(2-Amino-5,7-difluoro-1,3-benzothiazol-4-yl)-6-chloro-8-fluoroquinazolin-4-yl]piperazin-1-yl}prop-2-en-1-one]	0.743 µM	0.449 µM	–	0.256 µM	–
C=CC(=O)N1CCN(c2ncnc3c(Cl)c(-c4ccc(F)c5sc(N)nc45)c(Cl)cc23)CC1 [Example 2, 1-{4-[7-(2-Amino-7-fluoro-1,3-benzothiazol-4-yl)-6,8-dichloroquinazolin-4-yl]piperazin-1-yl}prop-2-en-1-one]	0.148 µM	0.0476 µM	0.0194 µM	–	–
C=CC(=O)N1CCN(c2ncnc3c(F)c(-c4cc(O)cc5ccccc45)c(Cl)cc23)CC1 [reference compound]	0.392 µM	0.0452 µM	0.204 µM	–	–
C=CC(=O)N1CCN(c2ncnc3c(F)c(-c4c(O)cccc4F)c(Cl)cc23)CC1 [reference compound]	3.78 µM	–	1.6 µM	–	–
